According to PubChem BioAssay (NCI):
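Tested at 5 concentrations; 48 h exposure; 96-well plates; endpoints linearly interpolated, else capped at highest concentration. Here, GI50 denotes the concentration required for 50% inhibition of growth. The concentration for full growth arrest is given as TGI.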

Assays:
Assay in all cases: inhibition of tumour cell growth, NCI panel, 48 h
[1] = tested on: MCF7 breast
[2] = tested on: SK-MEL-28 melanoma
[3] = tested on: MDA-MB-231 breast
[4] = tested on: SW-620 colon
[5] = tested on: NCI-H460 lung
[6] = tested on: OVCAR-8 ovarian
[7] = tested on: SF-268 CNS
[8] = tested on: NCI-H226 lung
[9] = tested on: M14 melanoma
[10] = tested on: 786-0 renal

Which results are given for `C=C1C(=O)O[C@@H]2/C=C(\C)CC/C=C(/COC(C)=O)C[C@@H](OC(C)=O)[C@@H]12`?
TGI [1]: 17 µM; TGI [2]: 23.5 µM; TGI [3]: 28.5 µM; TGI [4]: 15.4 µM; TGI [5]: 26 µM; TGI [6]: > 55.3 µM; TGI [7]: 33.2 µM; TGI [8]: 64.1 µM; TGI [9]: 27.1 µM; TGI [10]: 17.7 µM

For `COC(=O)C1=CNC=C(C(=O)OC)C1C1=CC(=O)C(C)=CC1=O`, which GI50 [1] is on record?
Its GI50 is 16.7 µM.

What about the TGI [1] of the same compound?
Its TGI is 47.5 µM.

And the GI50 [2]?
The GI50 was 24.3 µM.

What about the TGI [2] of the same compound?
Its TGI is greater than 59.6 µM.

And the GI50 [3]?
The GI50 was 2.78 µM.

What about the TGI [3] of the same compound?
Its TGI is 19.1 µM.

And the GI50 [4]?
Its GI50 is 8.43 µM.

What about the TGI [4] of the same compound?
Its TGI is 22.2 µM.

And the GI50 [5]?
Its GI50 is 14.2 µM.

What about the TGI [5] of the same compound?
The TGI was 30.5 µM.

What about the GI50 [6] of the same compound?
The GI50 was 14.3 µM.

And the TGI [6]?
The TGI was 29.1 µM.

And the GI50 [7]?
The GI50 was 9.82 µM.

And the TGI [7]?
Its TGI is 24.6 µM.

And the GI50 [8]?
The GI50 was 5.35 µM.

And the TGI [8]?
Its TGI is 17.2 µM.

And the GI50 [9]?
The GI50 was 15.2 µM.

And the TGI [9]?
Its TGI is 29.1 µM.

What about the GI50 [10] of the same compound?
Its GI50 is 4.3 µM.

And the TGI [10]?
Its TGI is 11.5 µM.

What does the source list for `COC1=CC(=O)c2nc(-c3cccc(C)n3)[nH]c2C1=O`?
GI50 [1]: 16.6 µM; TGI [1]: 35.7 µM; GI50 [2]: 31.7 µM; TGI [2]: > 100 µM; GI50 [3]: 27.1 µM; TGI [3]: 66.2 µM; GI50 [4]: 21.4 µM; TGI [4]: 54.8 µM; GI50 [5]: 17.1 µM; TGI [5]: 35.2 µM; GI50 [6]: 24.7 µM; TGI [6]: 78.2 µM; GI50 [7]: 24.7 µM; TGI [7]: 49.6 µM; GI50 [8]: 21.7 µM; TGI [8]: 43.8 µM; GI50 [9]: 35.6 µM; TGI [9]: > 100 µM; GI50 [10]: 19.8 µM; TGI [10]: 46.3 µM

How did the GI50 [1] turn out when `NS(=O)(=O)c1ccc(N=Nc2c(O)[nH]c3ccc(-c4cnco4)cc23)cc1` was run?
Its GI50 is 11.8 µM.

What about the TGI [1] of the same compound?
Its TGI is greater than 25 µM.

What about the GI50 [2] of the same compound?
The GI50 was greater than 25 µM.

And the TGI [2]?
The TGI was greater than 25 µM.

And the GI50 [3]?
Its GI50 is greater than 25 µM.

And the TGI [3]?
The TGI was greater than 25 µM.

And the GI50 [4]?
Its GI50 is 9.91 µM.

What about the TGI [4] of the same compound?
Its TGI is greater than 25 µM.

And the GI50 [5]?
The GI50 was 14.3 µM.

And the TGI [5]?
Its TGI is greater than 25 µM.

And the GI50 [6]?
Its GI50 is greater than 19.2 µM.

And the TGI [6]?
The TGI was greater than 25 µM.

And the GI50 [7]?
The GI50 was greater than 25 µM.

And the TGI [7]?
The TGI was greater than 25 µM.

What about the GI50 [8] of the same compound?
Its GI50 is greater than 25 µM.

What about the TGI [8] of the same compound?
Its TGI is greater than 25 µM.

What about the GI50 [9] of the same compound?
The GI50 was greater than 25 µM.

And the TGI [9]?
The TGI was greater than 25 µM.

What about the GI50 [10] of the same compound?
The GI50 was greater than 25 µM.

And the TGI [10]?
Its TGI is greater than 25 µM.

With `Oc1cccnc1CN1CCCCC1` as the compound, how does the TGI [1] read?
Its TGI is greater than 100 µM.

And the TGI [2]?
Its TGI is greater than 100 µM.

What about the TGI [3] of the same compound?
The TGI was greater than 100 µM.

What about the TGI [4] of the same compound?
Its TGI is greater than 100 µM.

What about the TGI [5] of the same compound?
Its TGI is greater than 100 µM.

And the TGI [6]?
The TGI was greater than 100 µM.

And the TGI [7]?
The TGI was greater than 100 µM.

What about the TGI [8] of the same compound?
The TGI was greater than 100 µM.

What about the TGI [9] of the same compound?
The TGI was greater than 100 µM.

And the TGI [10]?
The TGI was greater than 100 µM.

With `O=C(O)C1OC(n2cc(F)c(=O)[nH]c2=O)CC1O` (stereo not given) as the compound, how does the TGI [1] read?
Its TGI is greater than 100 µM.

What about the TGI [2] of the same compound?
Its TGI is greater than 63.1 µM.

And the TGI [3]?
The TGI was greater than 100 µM.

What about the TGI [4] of the same compound?
Its TGI is greater than 100 µM.

And the TGI [5]?
Its TGI is greater than 100 µM.

And the TGI [6]?
Its TGI is greater than 100 µM.

What about the TGI [7] of the same compound?
Its TGI is greater than 100 µM.

What about the TGI [8] of the same compound?
The TGI was greater than 100 µM.

And the TGI [9]?
Its TGI is greater than 100 µM.

What about the TGI [10] of the same compound?
The TGI was greater than 100 µM.

Which results are given for `O=C(N/N=C/c1ccc(Cl)cc1)c1ccc(C(F)(F)F)nc1Nc1cccc(C(F)(F)F)c1`?
GI50 [1]: 2.26 µM; TGI [1]: 10.8 µM; GI50 [2]: 2.54 µM; TGI [2]: 10.3 µM; GI50 [3]: 2.22 µM; TGI [3]: 8.83 µM; GI50 [4]: 1.45 µM; TGI [4]: 10.4 µM; GI50 [5]: 1.66 µM; TGI [5]: 6.6 µM; GI50 [6]: 2.23 µM; TGI [6]: 15.1 µM; GI50 [7]: 1.14 µM; TGI [7]: 8.29 µM; GI50 [8]: 2.21 µM; TGI [8]: 6.82 µM; GI50 [9]: 2.54 µM; TGI [9]: 10 µM; GI50 [10]: 0.818 µM; TGI [10]: 3.63 µM

Which GI50 [1] does the source give for `O=C(NC1=CC(=O)c2ccccc2C1=O)c1ccccc1` here?
The GI50 was 1.05 µM.

What about the TGI [1] of the same compound?
The TGI was 2.76 µM.

What about the GI50 [2] of the same compound?
Its GI50 is 0.841 µM.

And the TGI [2]?
Its TGI is 15.3 µM.

And the GI50 [3]?
Its GI50 is 0.421 µM.

And the TGI [3]?
The TGI was 1.76 µM.

What about the GI50 [4] of the same compound?
The GI50 was 1.15 µM.

And the TGI [4]?
Its TGI is 2.82 µM.

And the GI50 [5]?
The GI50 was 0.643 µM.

And the TGI [5]?
Its TGI is 13.1 µM.

And the GI50 [6]?
The GI50 was 1.67 µM.

And the TGI [6]?
Its TGI is 5.63 µM.

And the GI50 [7]?
Its GI50 is 1.21 µM.

What about the TGI [7] of the same compound?
The TGI was 13.8 µM.

What about the GI50 [8] of the same compound?
The GI50 was 2.67 µM.

And the TGI [8]?
The TGI was 15.7 µM.

What about the GI50 [9] of the same compound?
Its GI50 is 0.874 µM.

And the TGI [9]?
The TGI was 4.4 µM.

What about the GI50 [10] of the same compound?
The GI50 was 3.01 µM.

What about the TGI [10] of the same compound?
Its TGI is 17.2 µM.

Which results are given for `COC(=O)[C@H](C)NC(=O)NC(=O)NC(=O)CI`?
GI50 [1]: 10.2 µM; TGI [1]: 29.8 µM; GI50 [2]: 14.4 µM; TGI [2]: 29.9 µM; GI50 [3]: 18.8 µM; TGI [3]: 37.9 µM; GI50 [4]: 16.5 µM; TGI [4]: 34.4 µM; GI50 [5]: 20.1 µM; TGI [5]: 40.8 µM; GI50 [6]: 16.6 µM; TGI [6]: 33.9 µM; GI50 [7]: 17.2 µM; TGI [7]: 36.3 µM; GI50 [8]: 19.8 µM; TGI [8]: 44.9 µM; GI50 [9]: 11.8 µM; TGI [9]: 27.5 µM; GI50 [10]: 17.3 µM; TGI [10]: 32.1 µM

What does the source list for `N#C/C(=C1C=C(Br)/C(=N\O)C=C\1Cl)c1cccc2ccccc12`?
TGI [1]: 28.6 µM; TGI [2]: 21.9 µM; TGI [3]: 16.3 µM; TGI [4]: 25.5 µM; TGI [5]: 21.4 µM; TGI [6]: 52.7 µM; TGI [7]: 29.3 µM; TGI [8]: 6.54 µM; TGI [9]: 11.7 µM; TGI [10]: 13.6 µM
